Legend:
virus H1N1 A/Weiss/43 = experiment: microbe, parasite or virus in culture; assay type: cell-based; conditions: Influenza A virus, H1N1, 120 h; MDCK cells, CPE, 5 days, CCK-8; read-out: EC50, inhibitory activity against influenza virus (A/Weiss/43(H1N1))
in vivo = conditions: SD, rat
Protocol: The compounds disclosed herein were administered in form of a saline solution containing 5% DMSO, 5% Kolliphor HS 15 and 90% Saline. For intravenous administration (iv), the animals were administered with a dose of 1 mg/kg, and blood samples (0.3 mL) were collected at the time points of 0.083, 0.25, 0.5, 1.0, 2.0, 5.0, 7.0 and 24 h after drug administration, then each blood sample was processed to separate plasma by centrifugation at 3000 rpm or 4000 rpm for 10 minutes. For oral administration (po), the animals were administered with a dose of 5 mg/kg, and blood samples (0.3 mL) were collected at the time points of 0.25, 0.5, 1.0, 2.0, 5.0, 7.0 and 24 h after drug administration, then each blood sample was processed to separate plasma by centrifugation at 3000 rpm or 4000 rpm for 10 minutes. Plasma samples were collected and stored at −20° C. or −70° C. until LC/MS/MS analysis.

With `O=C(O)C1C2CCC(CC2)C1Nc1cc(-c2ccco2)nc(-c2c[nH]c3ncc(Cl)nc23)n1` (racemic) [Example 1, (+/−)-trans-3-((2-(2-chloro-5H-pyrrolo[2,3-b]pyrazin-7-yl)-6-(furan-2-yl)pyrimidin-4-yl)amino)bicyclo[2.2.2]octane-2-carboxylic Acid] the EC50 (virus H1N1 A/Weiss/43) was 3.89 nM.
In the case of `O=C(O)C1C2CCC(CC2)C1Nc1nc(-c2c[nH]c3ncc(Cl)nc23)nc(-c2ccco2)c1F` (racemic) [Example 3, (+/−)-trans-3-((2-(2-chloro-5H-pyrrolo[2,3-b]pyrazin-7-yl)-5-fluoro-6-(furan-2-yl)pyrimidin-4-yl)amino)bicyclo[2.2.2]octane-2-carboxylic Acid], the EC50 (virus H1N1 A/Weiss/43) is reported as 0.672 nM.
`O=C(O)C1C2CCC(CC2)C1Nc1nc(-c2c[nH]c3ncc(Cl)nc23)nc(-c2ccccc2)c1F` (racemic) [Example 4, (+/−)-trans-3-((2-(2-chloro-5H-pyrrolo[2,3-b]pyrazin-7-yl)-5-fluoro-6-phenylpyrimidin-4-yl)amino)bicyclo[2.2.2]octane-2-carboxylic Acid] showed an EC50 (virus H1N1 A/Weiss/43) of 0.116 nM.
`Cn1cc(-c2nc(-c3c[nH]c4ncc(Cl)nc34)nc(NC3C4CCC(CC4)C3C(=O)O)c2F)cn1` (racemic) [Example 5, (+/−)-trans-3-((2-(2-chloro-5H-pyrrolo[2,3-b]pyrazin-7-yl)-5-fluoro-6-(1-methyl-1H-pyrazol-4-yl)pyrimidin-4-yl)amino)bicyclo[2.2.2]octane-2-carboxylic Acid] gave an EC50 (virus H1N1 A/Weiss/43) of 3.52 nM.
Work on `O=C(O)C1C2CCC(CC2)C1Nc1nc(-c2c[nH]c3ncc(Cl)nc23)nc(-c2cc3ccccc3o2)c1F` (racemic) [Example 6, (+/−)-trans-3-((6-(benzofuran-2-yl)-2-(2-chloro-5H-pyrrolo[2,3-b]pyrazin-7-yl)-5-fluoropyrimidin-4-yl)amino)bicyclo[2.2.2]octane-2-carboxylic Acid] yielded an EC50 (virus H1N1 A/Weiss/43) of 0.398 nM.
`O=C(O)C1C2CCC(CC2)C1Nc1cc(-c2ccccc2)nc(-c2c[nH]c3ncc(Cl)nc23)n1` (racemic) [Example 12, (+/−)-trans-3-((2-(2-chloro-5H-pyrrolo[2,3-b]pyrazin-7-yl)-6-phenylpyrimidin-4-yl)amino)bicyclo[2.2.2]octane-2-carboxylic Acid] gave an EC50 (virus H1N1 A/Weiss/43) of 2.54 nM.
Compound `O=C(O)[C@H]1C2CCC(CC2)[C@@H]1Nc1nc(-c2c[nH]c3ncc(Cl)nc23)nc(-c2cc3ccccc3s2)c1F` [Example 7a, (2S,3S)-3-((6-(benzo[b]thiophen-2-yl)-2-(2-chloro-5H-pyrrolo[2,3-b]pyrazin-7-yl)-5-fluoropyrimidin-4-yl)amino)bicyclo[2.2.2]octane-2-carboxylic Acid] has an AUC(0-inf) (in vivo; iv, 1 mg/kg) of 3260 ng·h/mL, an AUC(0-t) (in vivo; iv, 1 mg/kg) of 3220 ng·h/mL and a clearance (in vivo; iv, 1 mg/kg) of 85.2 mL/min/kg. It also gave an AUC(0-inf) (in vivo; po, 5 mg/kg) of 9950 ng·h/mL and an AUC(0-t) (in vivo; po, 5 mg/kg) of 9840 ng·h/mL.
Work on `O=C(O)[C@H]1C2CCC(CC2)[C@@H]1Nc1cc(-c2cc3ccccc3s2)nc(-c2c[nH]c3ncc(Cl)nc23)n1` [Example 15, (2S,3S)-3-((6-(benzo[b]thiophen-2-yl)-2-(2-chloro-5H-pyrrolo[2,3-b]pyrazin-7-yl)pyrimidin-4-yl)amino)bicyclo[2.2.2]octane-2-carboxylic Acid] yielded an EC50 (virus H1N1 A/Weiss/43) of 0.76 nM.
Work on `O=C(O)[C@H]1C2CCC(CC2)[C@@H]1Nc1nc(-c2c[nH]c3nc(Cl)cnc23)nc(-c2cccs2)c1F` [Example 53, (2S,3S)-3-((2-(3-chloro-5H-pyrrolo[2,3-b]pyrazin-7-yl)-5-fluoro-6-(thiophen-2-yl)pyrimidin-4-yl)amino)bicyclo[2.2.2]octane-2-carboxylic Acid] yielded an AUC(0-inf) (in vivo; iv, 1 mg/kg) of 3740 ng·h/mL, an AUC(0-t) (in vivo; iv, 1 mg/kg) of 3670 ng·h/mL and a clearance (in vivo; iv, 1 mg/kg) of 74.2 mL/min/kg. The AUC(0-inf) (in vivo; po, 5 mg/kg) was 18000 ng·h/mL and the AUC(0-t) (in vivo; po, 5 mg/kg) was 17700 ng·h/mL.
`O=C(O)[C@H]1C2CCC(CC2)[C@@H]1Nc1nc(-c2c[nH]c3ncc(Cl)nc23)nc2c1ccn2C(CF)CF` [Example 65, (2S,3S)-3-((2-(2-chloro-5H-pyrrolo[2,3-b]pyrazin-7-yl)-7-(1,3-difluoropropan-2-yl)-7H-pyrrolo[2,3-d]pyrimidin-4-yl)amino)bicyclo[2.2.2]octane-2-carboxylic Acid] showed an AUC(0-inf) (in vivo; iv, 1 mg/kg) of 2390 ng·h/mL, an AUC(0-t) (in vivo; iv, 1 mg/kg) of 2370 ng·h/mL and a clearance (in vivo; iv, 1 mg/kg) of 121 mL/min/kg. The AUC(0-inf) (in vivo; po, 5 mg/kg) was 6170 ng·h/mL and the AUC(0-t) (in vivo; po, 5 mg/kg) was 6150 ng·h/mL.

Reference: patent US10987354B2, “Inhibitors of influenza virus replication and uses thereof” (SUNSHINE LAKE PHARMA CO., LTD., priority 2016, dated 2021)
